# Laboratory results taken from patent US12031977B2, “Ex vivo system for determining multiple drug-drug transporter interactions and methods of use thereof” (Massachusetts Institute of Technology, priority 2019, dated 2024).
# Where a name gives a salt, the structure may show the parent alone. Read-outs that look alike come from different tables or passages of the source. d = 2'-deoxy (DNA); r = 2'-OH (RNA)
# Tests used:
# P-gp, BCRP, and MRP2 [1] = assay: mock screening of model drugs: ex vivo perfusion through porcine small intestine tissue after siRNA knockdown; conditions: transporter(s) found by siRNA knockdown perfusion screen
# Source text: (§4) Pig tissue was freshly sourced from local slaughter houses (i.e., Leman & Sons, Hilltown Pork, and Blood Farm). Small intestinal tissue was isolated from intact gastrointestinal tract immediately after euthanasia, and dissected longitudinally. A series of washes with PBS supplemented with 5% Antibiotic-Antimycotic solution (Thermo Fisher Scientific) was applied to the tissue until clean under sterile conditions. Then, the tissue was mounted on a device filled with PBS (5% Antibiotic-Antimycotic) solution and cultured at 37° C. incubation with 5% CO2 supplement.
# (§5) siRNA duplex solution was diluted into PBS solution to a final concentration of 1 μM. […] Tissue was cultured for 24 hours before the perfusion assay.
# (§6) The device consists of a bottom reservoir plate and an upper load plate. Both plates were made by laser cutting (Universal Laser Systems VLS6.60) a standard 48-well plate outline and well pattern (Corning 48 well plate, transparent) as well as magnet holes onto an acrylic sheet (McMaster-Carr 1/4″ thickness). Neodymium magnets (K&J Magnetics Cylinder, 3/16″× 3/16″, N52, NI) were press fitted into the magnet holes of both plates. Seal film (Thermo) was applied to seal the bottoms of the wells of the reservoir plate, and PBS solution was loaded into each well. Then, tissue was placed on top of the reservoir plate and the upper load plate was laid on top of the tissue. The magnets were oriented to align and attract the two plates together, ensuring a strong seal between the wells.
# (§7) For ex vivo perfusion study, the detection of each drug is based on either fluorescent or absorbance measurements according to the literature. A 1 mg/mL drug stock was prepared for each drug in PBS (pH 7.4). For water-insoluble drugs, a final concentration of DMSO in PBS was used to solubilize drugs.
# Pgp, BCRP, MRP2 = conditions: cited from earlier work
# P-gp, BCRP, or MRP2 = assay: in vivo pharmacokinetic study with oral transport inhibitor pre-treatment; conditions: oral gavage, serum, 60 minutes; verapamil for P-gp, imatinib for BCRP, or probenecid for MRP2; p<0.05
# P-gp, BCRP, and MRP2 [2] = system: P-gp, BCRP, and MRP2
# Source text: as §4, §5, §6, §7
# [3] = target: T1, P-gp, BCRP, MRP2, PEPT1, and MCT1 (Sus scrofa, UniProt Q8MIB3); assay: ex vivo perfusion of known substrates and non-substrates after knockdown of a single transporter; format: in vitro ADME, porcine; conditions: other drugs p<0.01
# T1 construct: Small intestinal tissue was isolated from intact gastrointestinal tract immediately after euthanasia; from tissue; host or cells: porcine small intestine explant, single transporter knocked down by siRNA
# T1 sequence (Q8MIB3 1-656): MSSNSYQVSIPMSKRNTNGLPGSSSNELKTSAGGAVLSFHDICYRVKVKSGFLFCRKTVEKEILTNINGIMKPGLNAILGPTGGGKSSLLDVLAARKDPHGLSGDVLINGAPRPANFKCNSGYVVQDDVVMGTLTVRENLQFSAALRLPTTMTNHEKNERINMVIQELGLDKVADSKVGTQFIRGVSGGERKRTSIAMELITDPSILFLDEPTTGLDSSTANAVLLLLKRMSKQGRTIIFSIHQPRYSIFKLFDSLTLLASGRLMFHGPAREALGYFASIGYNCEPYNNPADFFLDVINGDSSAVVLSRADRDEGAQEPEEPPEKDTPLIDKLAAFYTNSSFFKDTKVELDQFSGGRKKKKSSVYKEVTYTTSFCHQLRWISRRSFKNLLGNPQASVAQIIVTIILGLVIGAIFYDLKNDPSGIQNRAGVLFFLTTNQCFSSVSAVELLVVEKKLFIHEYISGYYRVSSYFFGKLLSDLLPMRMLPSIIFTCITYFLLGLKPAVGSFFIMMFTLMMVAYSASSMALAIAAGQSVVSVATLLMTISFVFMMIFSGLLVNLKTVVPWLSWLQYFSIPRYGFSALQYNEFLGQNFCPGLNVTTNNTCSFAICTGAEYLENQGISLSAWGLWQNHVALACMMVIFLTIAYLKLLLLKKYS
# Protocol: If a molecule is transported by a specific transporter, its diffusion across the tissue should be impacted by selectively down regulating that transporter. To validate that the platform accurately captures this behavior, a total of 23 known transporter-drug relationships was tested.
# cytochrome P450 3A4 = cytochrome P450 3A4 (Homo sapiens, UniProt P08684); conditions: cited from earlier work
# P-gp [4] = target: T2, P-gp (Sus scrofa, UniProt K7GMM7); assay: ex vivo perfusion versus altered P-gp expression; format: in vitro ADME, porcine
# T2 construct: Small intestinal tissue was isolated from intact gastrointestinal tract immediately after euthanasia; from tissue; host or cells: porcine small intestine explant, P-gp level lowered by graded siRNA doses
# Source text: (§1) Next perfusion of drugs that are known to be substrates for multiple transporters was studied. […] To be able to delineate such effects, it was aimed to down regulate multiple transporters simultaneously. Two siRNAs targeting P-gp and BCRP were co-delivered with varying concentrations of each siRNA and noted that expression levels could be fine-tuned in a dose-dependent, linear fashion (Pearson r=0.79 and 0.96, FIG. 5C). Next, how the simultaneous and gradual down regulation of transporter expression impacts drug perfusion was studied. Perfusion of BCRP-specific substrates increased linearly with reduced BCRP-expression (dauricine R=0.7, hymecromone sulfate R=0.81) but were not affected by altering P-gp expression (p>0.28 one-tailed Z test at maximum siPgp concentration; FIG. 5C).
# BCRP [5] = target: T3, BCRP (Sus scrofa, UniProt Q8MIB3); assay: ex vivo perfusion versus gradually reduced BCRP expression; format: in vitro ADME, porcine
# T3 construct: Small intestinal tissue was isolated from intact gastrointestinal tract immediately after euthanasia; from tissue; host or cells: porcine small intestine explant, BCRP level lowered by graded siRNA doses
# T3 sequence (Q8MIB3 1-656): T1 sequence (Q8MIB3 1-656)
# Source text: as §1
# BCRP and MRP2 = assay: ex vivo perfusion with doxycycline co-treatment
# Protocol: Four candidate drugs that are known substrates of BCRP and MRP2 were manually selected to study whether they could potentially interact with doxycycline.
# As a first-line test (FIG. 10), ex vivo perfusion experiments were conducted to test for changes in absorption when co-administering the candidates with doxycycline.
# BCRP [6] = assay: siRNA dose versus transporter expression (western-blot); format: cell-based, porcine; conditions: co-delivery with varying concentrations, 0 to 25 μM
# Protocol: (§2) FIGS. 5A-5B show the level of reduction in P-gp and BCRP drug transporter expression depends on the dose of siRNA (0 to 25 μM) administered to the intestinal tissue explant.
# (§3) Tissue was dissected and snap frozen in liquid nitrogen. Every 1 mg of tissue sample was homogenized in 100 μL of RIPA buffer supplied with protease inhibitor (Roche) by Berkin 24-cycle homogenizer. After centrifugation, the protein concentration from the supernatant was determined by BCA assay (Pierce) according to manufactory protocol. A total of 100 μg of protein was loaded on each lane for western-blotting. Blots were imaged with Bio-rad universal Hood Ii Molecular Imager (1312M) with Chemiluminescence method. Contrast setting was set for auto-contrast for all images.
# as §1, with “Perfusion of BCRP-specific substrates increased linearly with reduced BCRP-expression (dauricine R=0.7, hymecromone sulfate R=0.81) but were not affected by altering P-gp expression (p>0.28 one-tailed Z test at maximum siPgp concentration; FIG. 5C).” left out
# P-gp [7] = assay: as above; format: cell-based, porcine; conditions: co-delivery with varying concentrations, 0 to 25 μM
# Protocol: as §2, §3
# as §1, with “Perfusion of BCRP-specific substrates increased linearly with reduced BCRP-expression (dauricine R=0.7, hymecromone sulfate R=0.81) but were not affected by altering P-gp expression (p>0.28 one-tailed Z test at maximum siPgp concentration; FIG. 5C).” left out
# [8] = transporter(s) reported in previous literature for the drug
# Chain of cytochrome P450 3A4 (P08684 whole entry, the tested form may be a part): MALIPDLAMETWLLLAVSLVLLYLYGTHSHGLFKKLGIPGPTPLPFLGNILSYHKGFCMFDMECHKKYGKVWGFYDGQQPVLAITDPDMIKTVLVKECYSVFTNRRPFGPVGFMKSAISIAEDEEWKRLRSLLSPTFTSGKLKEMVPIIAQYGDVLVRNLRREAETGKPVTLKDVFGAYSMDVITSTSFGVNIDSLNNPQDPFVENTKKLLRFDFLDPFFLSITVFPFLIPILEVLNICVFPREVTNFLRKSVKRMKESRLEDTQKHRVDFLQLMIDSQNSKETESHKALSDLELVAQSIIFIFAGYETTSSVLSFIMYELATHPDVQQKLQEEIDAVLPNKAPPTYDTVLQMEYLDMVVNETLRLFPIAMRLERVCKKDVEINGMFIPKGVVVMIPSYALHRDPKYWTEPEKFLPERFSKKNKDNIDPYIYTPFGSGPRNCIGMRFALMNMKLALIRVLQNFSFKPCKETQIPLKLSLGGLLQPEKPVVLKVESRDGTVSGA
# T2 sequence (K7GMM7 1-1248): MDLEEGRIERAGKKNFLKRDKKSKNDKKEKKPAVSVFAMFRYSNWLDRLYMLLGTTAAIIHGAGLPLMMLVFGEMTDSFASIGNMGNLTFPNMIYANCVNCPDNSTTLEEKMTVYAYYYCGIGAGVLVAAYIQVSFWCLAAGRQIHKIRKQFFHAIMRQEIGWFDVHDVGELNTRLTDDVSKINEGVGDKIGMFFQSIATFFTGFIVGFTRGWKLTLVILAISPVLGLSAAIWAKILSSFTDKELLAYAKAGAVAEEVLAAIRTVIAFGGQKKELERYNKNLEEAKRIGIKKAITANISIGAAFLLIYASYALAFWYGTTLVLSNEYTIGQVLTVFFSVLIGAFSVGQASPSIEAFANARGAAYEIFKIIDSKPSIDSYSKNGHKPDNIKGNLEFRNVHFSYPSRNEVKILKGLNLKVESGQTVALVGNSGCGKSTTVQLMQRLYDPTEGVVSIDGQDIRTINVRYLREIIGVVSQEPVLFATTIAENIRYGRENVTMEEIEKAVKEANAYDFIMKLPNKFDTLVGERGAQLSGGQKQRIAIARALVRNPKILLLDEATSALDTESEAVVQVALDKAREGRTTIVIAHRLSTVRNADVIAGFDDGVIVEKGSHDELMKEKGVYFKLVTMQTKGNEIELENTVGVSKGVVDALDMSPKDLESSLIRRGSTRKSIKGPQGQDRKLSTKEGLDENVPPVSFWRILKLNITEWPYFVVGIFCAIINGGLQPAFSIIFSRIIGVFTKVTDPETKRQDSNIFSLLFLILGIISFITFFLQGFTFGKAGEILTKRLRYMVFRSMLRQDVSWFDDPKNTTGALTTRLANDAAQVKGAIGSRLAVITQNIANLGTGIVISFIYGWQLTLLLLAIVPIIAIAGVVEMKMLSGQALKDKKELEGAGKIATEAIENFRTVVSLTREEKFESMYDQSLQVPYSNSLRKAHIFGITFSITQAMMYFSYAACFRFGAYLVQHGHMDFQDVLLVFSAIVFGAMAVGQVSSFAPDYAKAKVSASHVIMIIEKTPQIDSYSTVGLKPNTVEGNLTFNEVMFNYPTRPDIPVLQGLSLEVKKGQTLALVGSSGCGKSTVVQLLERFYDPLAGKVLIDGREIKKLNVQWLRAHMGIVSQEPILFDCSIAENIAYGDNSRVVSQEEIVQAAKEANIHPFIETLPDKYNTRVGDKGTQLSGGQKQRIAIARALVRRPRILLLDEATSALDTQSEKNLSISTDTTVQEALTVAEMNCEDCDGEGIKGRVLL
compound,measurement,setting,value
CCOc1nc2cccc(C(=O)OC(C)OC(=O)OC3CCCCC3)c2n1Cc1ccc(-c2ccccc2-c2nnn[nH]2)cc1 (stereo not shown) [Candesartan cilexetil],Platform Target,"P-gp, BCRP, and MRP2 [1]",no target
same,Literature Target,"Pgp, BCRP, MRP2; [8]",Pgp
NC(=O)N1c2ccccc2C=Cc2ccccc21 [Carbamazepine],Platform Target,"P-gp, BCRP, and MRP2 [1]",Pgp & BCRP
same,Literature Target,"Pgp, BCRP, MRP2; [8]",Pgp
same,relative AUC (drug absorption) with versus without transport inhibitor,"P-gp, BCRP, or MRP2",did not show the expected effect
CN(C)[C@@H]1C(O)=C(C(N)=O)C(=O)[C@@]2(O)C(O)=C3C(=O)c4c(O)ccc(Cl)c4[C@@](C)(O)[C@H]3C[C@@H]12 [Chlorotetracycline],Literature Target,"Pgp, BCRP, MRP2",no target
same,Platform Target,"P-gp, BCRP, and MRP2 [2]",no target
O=c1ccc2ccccc2o1 [Coumarin],Platform Target,"P-gp, BCRP, and MRP2 [1]",Pgp
same,Literature Target,"Pgp, BCRP, MRP2; [8]",Pgp
C[C@H]1c2cccc(O)c2C(=O)C2=C(O)[C@]3(O)C(=O)C(C(N)=O)=C(O)[C@@H](N(C)C)[C@@H]3[C@@H](O)[C@@H]21 [Doxycycline],Platform Target,"P-gp, BCRP, and MRP2 [1]",BCRP & MRP2
same,known substrate of transporters,"Pgp, BCRP, MRP2",P-gp and OAT1
same,Literature Target,"Pgp, BCRP, MRP2; [8]",no target
same,relative AUC (drug absorption) with versus without transport inhibitor,"P-gp, BCRP, or MRP2",novel BCRP and MRP2 substrate
N[C@@H](Cc1ccccc1)C(=O)O [L-phenylalanine],Platform Target,"P-gp, BCRP, and MRP2 [1]",no target
same,Literature Target,"Pgp, BCRP, MRP2; [8]",no target
CN(C)C(=O)C(CCN1CCC(O)(c2ccc(Cl)cc2)CC1)(c1ccccc1)c1ccccc1 [Loperamide],Literature Target,"Pgp, BCRP, MRP2",no target
same,Platform Target,"P-gp, BCRP, and MRP2 [2]",no target
CC(C)(C)NCC(O)COc1cccc2c1CC(O)C(O)C2 (stereo not shown) [Nadolol],Platform Target,"P-gp, BCRP, and MRP2 [1]",BCRP
same,Literature Target,"Pgp, BCRP, MRP2; [8]",no target
NCCC(O)(P(=O)(O)O)P(=O)(O)O [Pamidronate disodium salt hydrate],Platform Target,"P-gp, BCRP, and MRP2 [1]",Pgp
same,Literature Target,"Pgp, BCRP, MRP2; [8]",no target
CN1C(C(=O)Nc2ccccn2)=C(O)c2ccccc2S1(=O)=O [Piroxicam],Platform Target,"P-gp, BCRP, and MRP2 [1]",no target
same,Literature Target,"Pgp, BCRP, MRP2; [8]",no target
CNC(=C[N+](=O)[O-])NCCSCc1ccc(CN(C)C)o1 [Ranitidine],Platform Target,"P-gp, BCRP, and MRP2 [1]",Pgp & BCRP & MRP2
same,Literature Target,"Pgp, BCRP, MRP2; [8]",Pgp & BCRP
CC(C)c1nc(N(C)S(C)(=O)=O)nc(-c2ccc(F)cc2)c1/C=C/[C@@H](O)C[C@@H](O)CC(=O)O [Rosuvastatin],"p, two-tailed T test, of perfusion increase after knockdown",[3],2%
CC(C)(C)NCC(O)c1cc(O)cc(O)c1 (stereo not shown) [Terbutaline],Platform Target,"P-gp, BCRP, and MRP2 [1]",no target
same,Literature Target,"Pgp, BCRP, MRP2; [8]",no target
CC(=O)CC(c1ccccc1)c1c(O)c2ccccc2oc1=O (stereo not shown) [Warfarin],Platform Target,"P-gp, BCRP, and MRP2 [1]",Pgp & BCRP
same,metabolism through cytochrome P450 3A4,cytochrome P450 3A4,metabolized through cytochrome P450 3A4
same,known substrate of transporters,"Pgp, BCRP, MRP2",BCRP and MRP2
same,Literature Target,"Pgp, BCRP, MRP2; [8]",Pgp & BCRP
COc1cc2c(cc1OC)[C@@H](Cc1ccc(Oc3cc(C[C@@H]4c5cc(OC)c(OC)cc5CCN4C)ccc3O)cc1)N(C)CC2 [dauricine],perfusion on altering P-gp expression,P-gp [4],not affected
same,"R, perfusion increase versus reduced BCRP-expression",BCRP [5]; pig,0.7
C[C@H]1O[C@@H](O[C@H]2[C@@H](O)C[C@H](O[C@H]3[C@@H](O)C[C@H](O[C@H]4CC[C@@]5(C)[C@H](CC[C@@H]6[C@@H]5C[C@@H](O)[C@]5(C)[C@@H](C7=CC(=O)OC7)CC[C@]65O)C4)O[C@@H]3C)O[C@@H]2C)C[C@H](O)[C@@H]1O [digoxin],perfusion / absorption upon co-treatment with doxycycline,BCRP and MRP2,increased absorption
same,metabolism through cytochrome P450 3A4,cytochrome P450 3A4,not cytochrome substrates
same,known substrate of transporters,"Pgp, BCRP, MRP2",BCRP and MRP2
CC[C@@H](C(N)=O)N1CCCC1=O [levetiracetam],perfusion / absorption upon co-treatment with doxycycline,BCRP and MRP2,increased absorption
same,metabolism through cytochrome P450 3A4,cytochrome P450 3A4,not cytochrome substrates
same,known substrate of transporters,"Pgp, BCRP, MRP2",BCRP and MRP2
C=CC[C@@H]1/C=C(\C)C[C@H](C)C[C@H](OC)[C@H]2O[C@@](O)(C(=O)C(=O)N3CCCC[C@H]3C(=O)O[C@H](/C(C)=C/[C@@H]3CC[C@@H](O)[C@H](OC)C3)[C@H](C)[C@@H](O)CC1=O)[C@H](C)C[C@@H]2OC [tacrolimus],perfusion / absorption upon co-treatment with doxycycline,"BCRP and MRP2; ex vivo, LC-MS/MS, p<0.05",increased absorption
same,metabolism through cytochrome P450 3A4,cytochrome P450 3A4,metabolized through cytochrome P450 3A4
same,known substrate of transporters,"Pgp, BCRP, MRP2",BCRP and MRP2
Ergotamine D-tartrate,Platform Target,"P-gp, BCRP, and MRP2 [1]",Pgp & BCRP & MRP2
same,Literature Target,"Pgp, BCRP, MRP2; [8]",Pgp
hymecromone sulfate,perfusion on altering P-gp expression,"P-gp [4]; BCRP-specific substrates, p>0.28 one-tailed Z test at maximum siPgp concentration",not affected
same,"R, perfusion increase versus reduced BCRP-expression","BCRP [5]; BCRP-specific substrates, linear relation, FIG. 5C",0.81
"siRNA targeting BCRP: siRNA duplex, sense SEQ ID NO: 95, antisense SEQ ID NO: 96 (sense ACUUCUUCCUGGACGUCAUUATT; antisense UAAUGACGUCCAGGAAGAAGUTT; chemistry not given here)","Pearson r, expression level versus siRNA dose",BCRP [6],0.96
"siRNA targeting P-gp: siRNA duplex, sense SEQ ID NO: 91, antisense SEQ ID NO: 92 (sense AUGACAGUGUACGCCUAUUAUTT; antisense AUAAUAGGCGUACACUGUCAUTT; sugars from the 5' end r21 d2, backbone not given here)","Pearson r, expression level versus siRNA dose",P-gp [7],0.79
